# Assay results: patent publication US9833497B2, “Human originated EGF domain proteins and use of the same” (CHENGDU SOURCEBIO LIMITED-LIABILITY COMPANY, priority 2013, dated 2017)
# How the values were obtained:
# Assay type in all cases: cell-based
# E. coli DH5α = experiment: Antibacterial activity: MIC and growth curve against E. coli DH5α in 96-well plate; conditions: minimal inhibitory concentration against E. coli DH5α; 96-well plate, 5×10^5 CFU/mL, 37° C., judged after 8 h
# Procedure, shortened: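 MIC taken as lowest protein level with no bacterial growth, tracked by A600 every 30 min during 37 °C, 175 rpm culture. Two-fold protein series 50-12.5 μg/mL final, triplicate wells, against 5×10^5 CFU/mL of LB-washed mid-log cells.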
# E. coli BL21 = experiment: MIC against Gram-negative bacteria: E. coli BL21; conditions: 5×10^5 CFU/mL
# Procedure, shortened: (§1)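 Growth inhibition by human EGF domain proteins was scored in LB liquid culture seeded at 5×10^5 CFU/mL. Protein was applied as a two-fold dilution series in triplicate, with shaking incubation at 37° C; MIC is the lowest concentration giving no growth.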
# Pseudomonas aeruginosa = experiment: MIC against Gram-negative bacteria: Pseudomonas aeruginosa; conditions: 5×10^5 CFU/mL
# Procedure, shortened: as §1
# Klebsiella pneumonia = experiment: MIC against Gram-negative bacteria: Klebsiella pneumonia; conditions: 5×10^5 CFU/mL
# Procedure, shortened: as §1
# Enterobacter cloacae = experiment: MIC against Gram-negative bacteria: Enterobacter cloacae; conditions: 5×10^5 CFU/mL
# Procedure, shortened: as §1
# Aeromonas hydrophila = experiment: MIC against Gram-negative bacteria: Aeromonas hydrophila; conditions: 5×10^5 CFU/mL
# Procedure, shortened: as §1
# Citrobacter diversus = experiment: MIC against Gram-negative bacteria: Citrobacter diversus; conditions: 5×10^5 CFU/mL
# Procedure, shortened: as §1
# Moraxella catarrhalis = experiment: MIC against Gram-negative bacteria: Moraxella catarrhalis; conditions: 5×10^5 CFU/mL
# Procedure, shortened: as §1
# Proteus mirabilis = experiment: MIC against Gram-negative bacteria: Proteus mirabilis; conditions: 5×10^5 CFU/mL
# Procedure, shortened: as §1
# Proteus vulgaris = experiment: MIC against Gram-negative bacteria: Proteus vulgaris; conditions: 5×10^5 CFU/mL
# Procedure, shortened: as §1
# Serratia marcescens = experiment: MIC against Gram-negative bacteria: Serratia marcescens; conditions: 5×10^5 CFU/mL
# Procedure, shortened: as §1
# [1] = 10 h cultivation at 37° C., two-fold serial dilution
Substance,MIC (E. coli DH5α) [µg/mL],MIC (μg/mL) E. coli BL21 (E. coli BL21; 10 h cultivation at 37° C.) [µg/mL],MIC (μg/mL) P. aeruginosa (Pseudomonas aeruginosa; 10 h cultivation at 37° C.) [µg/mL],MIC (μg/mL) K. pneumonia (Klebsiella pneumonia; 10 h cultivation at 37° C.) [µg/mL],MIC (μg/mL) E. cloacae (Enterobacter cloacae; 10 h cultivation at 37° C.) [µg/mL],MIC (μg/mL) A. hydrophila (Aeromonas hydrophila; 10 h cultivation at 37° C.) [µg/mL],MIC (μg/mL) C. diversus (Citrobacter diversus; 10 h cultivation at 37° C.) [µg/mL],MIC (μg/mL) M. catarrhalis (Moraxella catarrhalis; 10 h cultivation at 37° C.) [µg/mL],MIC (μg/mL) P. mirabilis (Proteus mirabilis; 10 h cultivation at 37° C.) [µg/mL],MIC (μg/mL) P. vulgaris (Proteus vulgaris; 10 h cultivation at 37° C.) [µg/mL],MIC (μg/mL) S. marcescens (Serratia marcescens; 10 h cultivation at 37° C.) [µg/mL],also measured
PRT1144 (NANDCLSNPCLHGRCTELINEYPCSCDADGTSTQCK; listed as Homo sapiens),50,–,–,–,–,–,–,–,–,–,–,MIC E. coli BL21 (E. coli BL21; [1]): 12.5 µg/mL; MIC P. aeruginosa (Pseudomonas aeruginosa; [1]): 50 µg/mL; MIC K. pneumonia (Klebsiella pneumonia; [1]): 12.5 µg/mL; MIC E. cloacae (Enterobacter cloacae; [1]): 50 µg/mL; MIC A. hydrophila (Aeromonas hydrophila; [1]): 12.5 µg/mL; MIC C. diversus (Citrobacter diversus; [1]): 25 µg/mL; MIC M. catarrhalis (Moraxella catarrhalis; [1]): 50 µg/mL; MIC P. mirabilis (Proteus mirabilis; [1]): 25 µg/mL; MIC P. vulgaris (Proteus vulgaris; [1]): 12.5 µg/mL; MIC S. marcescens (Serratia marcescens; [1]): 25 µg/mL
PRT768 (AIDYCSFGNHSCQHECVSTPGGPRCHCREGHDLQPDGRSCQ; listed as Homo sapiens),12.5,50,25,12.5,50,12.5,50,25,12.5,25,12.5,–
PRT791 (SQECQCHNGGTCDAATGQCHCSPGYTGERCQ; listed as Homo sapiens),50,12.5,50,12.5,50,12.5,25,50,25,12.5,12.5,–
PRT891 (DVDECASTPCKNGAKCLDGPNTYTCVCTEGYTGTHCE; listed as Homo sapiens),12.5,25,12.5,25,12.5,25,12.5,25,12.5,25,50,–
PRT705 (LDDSCKLTCENGGRCILNEKGDLRCHCWPSYSGE; listed as Homo sapiens),25,–,–,–,–,–,–,–,–,–,–,"MIC E. coli BL21 (E. coli BL21; 96-well plate, 37° C., 10 h): 50 µg/mL; MIC P. aeruginosa (Pseudomonas aeruginosa; 96-well plate, 37° C., 10 h): 12.5 µg/mL; MIC K. pneumonia (Klebsiella pneumonia; 96-well plate, 37° C., 10 h): 50 µg/mL; MIC E. cloacae (Enterobacter cloacae; 96-well plate, 37° C., 10 h): 12.5 µg/mL; MIC A. hydrophila (Aeromonas hydrophila; 96-well plate, 37° C., 10 h): 25 µg/mL; MIC C. diversus (Citrobacter diversus; 96-well plate, 37° C., 10 h): 100 µg/mL; MIC M. catarrhalis (Moraxella catarrhalis; 96-well plate, 37° C., 10 h): 25 µg/mL; MIC P. mirabilis (Proteus mirabilis; 96-well plate, 37° C., 10 h): 50 µg/mL; MIC P. vulgaris (Proteus vulgaris; 96-well plate, 37° C., 10 h): 12.5 µg/mL; MIC S. marcescens (Serratia marcescens; 96-well plate, 37° C., 10 h): 50 µg/mL"
